Article PMC10587169, “Tuning aminopolycarboxylate chelators for efficient complexation of trivalent actinides” (Scientific Reports, 2023)
“Also recorded” adds a separate entry of the source.

Tests used:
[1] = Competitive complexation liquid-liquid extraction with HDEHP; format: binding; conditions: competitive solvent extractions, T = 20 ± 1 °C; for logβ101 (ML), Am3+ / logβ101 (ML), Eu3+ / logβ111 (MHL), Am3+ / logβ111 (MHL), Eu3+: I = 2.00 M sodium perchlorate; for logβ101 (ML), Am3+ / logβ101 (ML), Eu3+ / logβ111 (MHL), Am3+ / logβ111 (MHL), Eu3+ / logK111, Am3+ / logK111, Eu3+: ±3σ; for logβ101 (ML), Cm3+: p[H+] variation not monitored
Procedure: (§1) Stability constants for the coordination of Eu^3+, Am^3+, Cm^3+, and Cf^3+ were also achieved by monitoring the suppression of liquid–liquid partitioning of the radiotracer due to the increasing presence of an aqueous complexant. Aqueous solutions were prepared containing sub-millimolar amounts of ligand while maintaining p[H^+] at 1.7, 1.8, 1.9, 2.0, and 2.1. Ionic strength was maintained at 2.00 M using sodium perchlorate. Aqueous complexation was balanced with the appropriate choice of HDEHP concentration in octane to allow accurate quantification of metal distribution. Non-aqueous phases were pre-equilibrated three times with 2.00 M NaClO4 at the corresponding p[H^+]. Preliminary time-dependent studies indicated the phase transfer equilibrium was attained for all measurements with H4octapa and H4pypa-peg (Figures S2 and S3 in the SI). For the mixtures traced with radioisotopes, the activity was measured using gamma spectroscopy (ORTEC GEM50P4 coaxial HPGe detector, DSPEC gamma spectrometer) for ^154Eu (123.07 keV), ^243Am (74.66 keV), and ^249Cf (388.17 keV) and liquid scintillation counting (Perkin Elmer Tri-Carb 3180 TR/SL) for ^248Cm. The ratio of radioisotope activity in the organic and aqueous phases defined the liquid–liquid distribution.
(§2) Liquid–liquid partitioning of trivalent f-elements was monitored in presence of H4octapa and H4pypa-peg using a strong liquid cation exchanger, bis–(2-ethylhexyl)phosphoric acid, HDEHP. This competitive solvent extraction methodology was used to determine the conditional stability constants for complexation of Eu^3+, Am^3+, Cm^3+, and Cf^3+ with H4octapa and H4pypa-peg. The metals, present at radiotracer concentrations ([…]), distributed between an organic phase containing HDEHP in n-octane and an aqueous phase containing the complexant at varying concentrations and aqueous acidity. The interpretation of the competitive complexation liquid–liquid distribution data (SI Tables S3 through S5 for H4octapa and S6 through S8 for H4pypa-peg) considered two complex formation equilibria as described by Eqs. (4) and (5). All collected distribution data indicated the average ligand-to-metal stoichiometry of 1.00 ± 0.04 for H4octapa and 1.00 ± 0.03 for H4pypa-peg (see SI Figures S10A and S11A). The partitioning of a trivalent metal ion as facilitated by a dimerized HDEHP cation exchanger can be expressed by Eq. (6) as quantified by the extraction constant, Kex (subscript org refers to organic-soluble species).6 M^3++3HDEHP2,org⇆MHDEHP23,org+3H^+Kex=MHDEHP23,orgH^+^3/M^3+HDEHP2,org^3
Substitution of equilibrium and extraction constants Eqs. (3)–(5) into Eq. (6) yields Eq. (8).8 DM=KexHDEHP2,org^3H^+^3/1+β101L^4-+β111L^4-H^+
At constant HDEHP concentration and p[H^+], when the distribution of the metal ion in absence of ligand is labelled as D^0, the liquid–liquid partitioning of the metal will adhere to Eq. (9),9 D^0/DM-1=β^appL^4- where β^app is the apparent stability constant as represented by β ^app = β101 + β111[H^+].
The Figs. 7A for H4octapa and Fig. 7C for H4pypa-peg show representative Eu^3+, Am^3+, and Cf^3+ sets of dependencies collected at constant aqueous acidities to determine β^app constants from the slopes of the error-weighted least-squares regression analyses. Equivalent dependencies were also collected at different p[H^+] conditions to study variation of β^app trends with p[H^+] as presented in Figs. 7B,D for H4octapa and H4pypa-peg, respectively. The distribution plots for Eu^3+, Am^3+, and Cf^3+ for H4pypa-peg clearly show variation with the changing aqueous acidity, which yielded good estimates for the conditional stability constants for the formation of ML^− and MHL(aq) (Table 5). The collected trends for Cf^3+ in the presence of H4octapa vary to a lesser extent, enabling the determination of β101 only. The p[H^+] variation was not monitored for the coordination of ^248Cm^3+ with both APC ligands due to limited availability of this radioisotope. […]

[2] = as above; format: binding; conditions: competitive solvent extractions, T = 20 ± 1 °C, ±3σ
Procedure: as §1, §2
The stoichiometry for the extraction of trivalent metal ion by HDEHP was verified at 2.85 ± 0.03 by slope analysis study using ^249Cf^3+ as representative ion for H4octapa (SI Figure S10B) and 2.78 ± 0.13 for H4pypa-peg (SI Figure S11B). […]

[3] = Solubility in aqueous electrolyte media (observation); format: physicochemical

## O=C(O)CN(Cc1cc(-c2cn(CCOCCOCCO)nn2)cc(CN(CC(=O)O)Cc2cccc(C(=O)O)n2)n1)Cc1cccc(C(=O)O)n1 [H4pypa-peg, 6,6'-((((4-(1-(2-(2-(2-hydroxyethoxy)ethoxy)ethyl)-1H-1,2,3-triazol-4-yl)pyridine-2,6-diyl)bis–(methylene))bis–((carboxymethyl)azanediyl))bis–(methylene)) dipicolinic acid]
[1]
  logβ101 (ML), Am3+: 19.6 (1)^^
  logβ101 (ML), Eu3+: 18.7 (2)
  logβ111 (MHL), Am3+: 21.8 (1)^^
  logβ111 (MHL), Eu3+: 20.6 (4)
  logβ101 (ML), Cm3+: 19.8
  logK111, Am3+: 2.2 (1)^^
  logK111, Eu3+: 1.9 (4)
[2]; I = 2.00 M sodium perchlorate
  logβ101 (ML), Cf3+: 21.0 (4)^^
  logβ111 (MHL), Cf3+: 23.2 (2)^^
[2]
  logK111, Cf3+: 2.2 (1)^^
[3]; moderately acidic aqueous electrolyte mixtures
  aqueous solubility compared to unfunctionalized H4pypa: significantly improved aqueous solubility

## O=C(O)CN(CCN(CC(=O)O)Cc1cccc(C(=O)O)n1)Cc1cccc(C(=O)O)n1 [H4octapa, 6,6′-((ethane-1,2-diylbis–((carboxymethyl)azanediyl))bis–(methylene))dipicolinic acid]
[1]
  logβ101 (ML), Am3+: 19.3 (6)
  logβ101 (ML), Eu3+: 18.59 (2)
  logβ111 (MHL), Am3+: – 21.8 (2)^^
  logβ111 (MHL), Eu3+: 20.45 (2)
  logβ101 (ML), Cm3+: 19.4^^
  logK111, Am3+: – 2.5 (6)^^
  logK111, Eu3+: 1.86 (2)
[2]; I = 2.00 M sodium perchlorate
  logβ101 (ML), Cf3+: 20.6 (2)^^
[3]; aqueous sodium perchlorate electrolyte medium, 2 M (Na+/H+)ClO4
  solubility in high ionic strength perchlorate media: limited; also recorded: Low solubility
